Assay [1] deals with T1, Angiotensin-converting enzyme (Homo sapiens, UniProt P12821). In words: Inhibition of testis ACE C domain.
Assay [2] addresses T1, Angiotensin-converting enzyme. In words: Inhibition of somatic ACE N domain upto 500 uM.
Assay [3] shares this target. In words: Selectivity for ACE C domain over ACE N domain.

Calls of active or inactive are those of the source. No cut-off for these calls is given here.

T1 sequence (P12821 whole entry): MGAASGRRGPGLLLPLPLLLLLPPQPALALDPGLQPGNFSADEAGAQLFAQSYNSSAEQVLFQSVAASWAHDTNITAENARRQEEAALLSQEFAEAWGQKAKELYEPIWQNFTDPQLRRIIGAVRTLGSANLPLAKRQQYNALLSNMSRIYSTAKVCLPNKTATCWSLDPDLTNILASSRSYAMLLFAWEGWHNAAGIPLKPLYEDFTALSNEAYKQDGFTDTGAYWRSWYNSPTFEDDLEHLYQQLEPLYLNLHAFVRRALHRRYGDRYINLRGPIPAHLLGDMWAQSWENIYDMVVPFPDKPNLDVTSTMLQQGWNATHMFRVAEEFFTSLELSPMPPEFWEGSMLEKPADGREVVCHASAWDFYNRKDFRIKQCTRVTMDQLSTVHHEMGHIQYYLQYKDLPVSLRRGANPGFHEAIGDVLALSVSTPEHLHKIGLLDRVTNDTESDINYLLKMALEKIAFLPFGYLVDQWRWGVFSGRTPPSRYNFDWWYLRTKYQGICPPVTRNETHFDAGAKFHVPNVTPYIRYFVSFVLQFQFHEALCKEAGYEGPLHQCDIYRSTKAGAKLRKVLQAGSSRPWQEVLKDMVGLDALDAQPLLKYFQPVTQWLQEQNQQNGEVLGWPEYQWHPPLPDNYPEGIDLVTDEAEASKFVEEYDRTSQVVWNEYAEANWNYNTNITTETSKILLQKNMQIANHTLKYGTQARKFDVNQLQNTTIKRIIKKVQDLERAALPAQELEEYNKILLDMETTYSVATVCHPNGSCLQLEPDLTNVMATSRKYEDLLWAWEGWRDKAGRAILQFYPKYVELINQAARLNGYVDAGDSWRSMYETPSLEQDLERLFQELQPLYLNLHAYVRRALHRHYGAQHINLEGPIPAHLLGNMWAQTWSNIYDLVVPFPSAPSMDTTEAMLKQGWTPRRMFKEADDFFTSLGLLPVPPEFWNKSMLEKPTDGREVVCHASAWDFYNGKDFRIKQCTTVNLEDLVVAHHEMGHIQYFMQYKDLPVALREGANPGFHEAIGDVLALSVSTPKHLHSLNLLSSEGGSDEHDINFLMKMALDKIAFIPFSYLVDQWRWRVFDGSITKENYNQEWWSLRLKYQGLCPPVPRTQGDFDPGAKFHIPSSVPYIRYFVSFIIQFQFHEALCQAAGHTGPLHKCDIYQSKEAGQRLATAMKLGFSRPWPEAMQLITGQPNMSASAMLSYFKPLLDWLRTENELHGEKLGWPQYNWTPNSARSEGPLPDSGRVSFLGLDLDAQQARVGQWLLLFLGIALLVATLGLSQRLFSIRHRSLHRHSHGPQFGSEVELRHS

In turn, `NCCCC[C@H](N[C@H](CCc1ccccc1)C(=O)O)C(=O)N[C@@H](Cc1c[nH]c2ccccc12)C(=O)O` registered a Ki in assay [1] of 26.3 µM. Further, the outcome in assay [2] was inactive. Also, the Ratio Ki in assay [3] was more than 25.

With `NCCCC[C@H](N[C@@H](CCc1ccccc1)C(=O)O)C(=O)N[C@@H](Cc1c[nH]c2ccccc12)C(=O)O`, the affinity in assay [1], expressed as Ki, was 7 µM. Besides, the result in assay [2] was inactive. For the same compound, the Ratio Ki in assay [3] is more than 100.

As a reminder, the Ki is a dissociation constant, usually derived from enzyme kinetics or from competition with a known ligand.

Source of the values: ChEMBL document CHEMBL1149517, “Synthesis and molecular modeling of a lisinopril-tryptophan analogue inhibitor of angiotensin I-converting enzyme” (Bioorg Med Chem Lett, 2006).
